Columns and labels:
Isolated Rat Portal Vein = assay: Potassium channel opening activity, isolated rat portal vein model (KCl-induced contractions); conditions: Dose 10^-6 Mol, 5 min incubation, n=5, mean + SEM, vehicle D.W. or DMSO; for Percent Inhibition Activity KCl20 mM: reduction of KCl 20 mM induced contraction; for Percent Inhibition Activity KCl80 mM: reduction of KCl 80 mM induced contraction
Experimental: Potassium channel opening activity: - Isolated Rat Portal Vein model.
Normal male albino rats of the Charles Foster strain of weight range 200 to 250 g were used.
After sacrificing the animal, abdomen was opened and portal vein was isolated and mounted in an organ bath containing Kerb's solution. The bath was maintained at 37°C and aerated with 95 vol.% oxygen and 5 vol.% carbon dioxide gas mixture. The tissue was kept under 0.5 to 1 g tension and allowed to stabilise for about 30 minutes. KCl₂₀ and KCl₈₀ mM induced cumulative concentrations were measured-through Hugo Sachs Force displacement transducer (K-30) and recorded on 4 channel digital recorder. After taking 2 control responses, the tissue was incubated with test substance for 5 minutes and dose response was repeated. The percent reduction in KCl₂₀ and KCl₈₀ mM induced contractions were calculated from the control values. Standard potassium channel opener selectively blocks the KCl₂₀ induced contractions without affecting the KCl₈₀ mM induced responses. […] The test compounds were administered in a volume of 0.2 ml per concentration. All results are expressed as mean + SEM.

Hypovolemic rats = assay: Blood pressure lowering activity in hypovolemic rats; assay type: in vivo; conditions: for Blood pressure (mm Hg) Initial: before drug
Experimental: Hypovolemic rats were used for this activity. Hypovolemic rats were prepared by the administration of 100 mg/kg furosemide intra peritoneally 1 hour prior to the actual experiment. After administering furosemide the rats were anesthesised with 1.5 g/kg urethane given i.p. The right carotid artery was cannulated and blood pressure was mentioned on a physiological recorder by connecting the carotial cannula to a pressure transducer. The left jugular vein was cannulated for i.v. administration of test substances - intra duodenal (i.d.) administration is made by exposing a portion of the duodenum through a small incision made in the abdomen below the sternum. Blood pressure was monitored for 10 minutes in case of i.v. administration and for 90 to 120 minutes when the drug was administered by the i.d. route.

SMILES	Percent Inhibition Activity KCl20 mM (Isolated Rat Portal Vein)	Percent Inhibition Activity KCl80 mM (Isolated Rat Portal Vein)	Blood pressure % change (Hypovolemic rats; 10 mg/kg i.v.) [%]	Blood pressure (mm Hg) Post drug (Hypovolemic rats; 10 mg/kg i.v.) [mm Hg]	Blood pressure duration (Hypovolemic rats; 10 mg/kg i.v.) [min]	Blood pressure (mm Hg) Initial (Hypovolemic rats; group dosed 10 mg/kg i.v.) [mm Hg]	Blood pressure % change (Hypovolemic rats; 30 mg/kg i.d.) [%]	Blood pressure (mm Hg) Post drug (Hypovolemic rats; 30 mg/kg i.d.) [mm Hg]	Blood pressure duration (Hypovolemic rats; 30 mg/kg i.d.) [min]	Blood pressure (mm Hg) Initial (Hypovolemic rats; group dosed 30 mg/kg i.d.) [mm Hg]
C=C[C@@]1(C)CC(=O)[C@H]2[C@](C)(O1)[C@H](N)C=C1C(C)(C)CCC[C@@]12C [(α)NH2, 7α-Amino-8,13-epoxy-labd-5,14-dien-11-one]	57+9%	34+9%	-20.5±3	68±4	5	87±9	–	–	–	–
C=C[C@@]1(C)CC(=O)[C@@]2(O)[C@](C)(O1)[C@@H](N)C=C1C(C)(C)CC[C@H](O)[C@@]12C [(β)NH2, 7β-Amino-1α,9α-dihydroxy-8,13-epoxy-labd-5,14-dien-11-one]	–	–	–	38±2	>70	90±10	–	–	–	–
C=C[C@@]1(C)CC(=O)[C@H]2[C@](C)(O1)[C@H](NC(C)=O)C=C1C(C)(C)CCC[C@@]12C [(α)NHCOCH3, 7α-Acetylamino-8,13-epoxy-labd-5,14-dien-11-one]	34+10%	5+2%	–	–	–	–	-15.4±3	80±4	30	94±3

From patent EP0560232A1, “Novel 7-aminolabdanes, a process for their preparation and their use as pharmaceutical agents” (HOECHST AKTIENGESELLSCHAFT, priority 1992, dated 1993)
